The target of assay [1] is c-Raf-1 (Homo sapiens, UniProt P04049). Briefly: c-Raf-1 kinase activity assay (AlphaScreen, biotin-MEK1 substrate). To be noted: 100 μM ATP, 100 nM biotin-MEK1, 45 minutes at room temperature; read-out: Biochemical activity (IC50 μM) c-Raf-1. The method, boiled down: (§1)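 AlphaScreen detection of phospho-MEK1 uses anti-phospho-MEK1/2 antibody and donor/acceptor beads, incubated 3 h. The kinase step runs 45 min at room temperature with 0.1 ng enzyme, 100 nM biotin-MEK1 and 100 μM ATP in 50 mM HEPES pH 7.0. IC50 is derived from eight compound concentrations.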
Background: Alpha assays give light when donor and acceptor beads are brought close together.

For assay [2], the target named is B-Raf (Homo sapiens, UniProt P15056). Briefly: B-Raf kinase activity assay (AlphaScreen, biotin-MEK1 substrate). To be noted: 100 μM ATP, 100 nM biotin-MEK1, 45 minutes at room temperature; read-out: Biochemical activity (IC50 μM) B-Raf. The method, boiled down:
as §1

Assay [3] has as its target B-Raf V600E (Homo sapiens, UniProt P15056, V600E). Put plainly: B-Raf V600E kinase activity assay (AlphaScreen, biotin-MEK1 substrate). To be noted: 100 μM ATP, 100 nM biotin-MEK1, 45 minutes at room temperature, read-out: Biochemical activity (IC50 μM) V600E. The method, boiled down: as §1
Assay [4] deals with COLO205 colon adenocarcinoma (B-Raf V600E mutation). Put plainly: COLO205 cell growth inhibition (ATPlite luminescence). To be noted: Homo sapiens, COLO 205, 72 h, COLO205 cells, incubated 3 days with compound. It counts as cell-based. The procedure:
Compounds are assessed in a variety of cell based assays. For example human cell lines with B-Raf V600E mutation (A375 melanoma, SKMEL3 melanoma, and COLO205 colon adenocarcinoma), as well as tumorigenic cell lines with wild-type B-RAF (SW620 colon adenocarcinoma) or with Ras mutations (SKMEL2 melanoma and IPC298 melanoma). Similar assays may be used to assess additional tumorigenic cell lines with Ras mutations, including, but not limited to, M202, M207, M243, M244, M296, S117, HCT116, HCT15, DLD1, MiaPaCa, A549, NCI-H23, NCI-H460, HOP62, MDA-MB231, Hs-578T, HL60, MOLT-4, and CCRF-CEM.
On day 1, cells are counted, then centrifuged in a conical tube for 5 minutes at 1000 rpm. The supernatant is removed and cells are re-suspended as follows: • SW620 (ATCC catalog #CCL-27): resuspend in Leibovitz's L-15 medium, 2 mM L-glutamine, 10% fetal bovine serum to 6×10^4 cells/mL. • A375 (ATCC catalog #CRL-1619): resuspend in Dulbecco's modified Eagle's medium, 4 mM L-glutamine, 4.5 g/L D-glucose, 10% fetal bovine serum to 6×10^4 cells/mL. • COLO205 (ATCC catalog #CCL-222): resuspend in RPMI 1640, 2 mM L-glutamine, 1.5 g/L sodium bicarbonate, 4.5 g/L D-glucose, 10 mM HEPES, 1.0 mM sodium pyruvate, 10% fetal bovine serum to 6×10^4 cells/mL. • SKMEL2 (ATCC catalog #HTB-68): resuspend in Minimum Eagle essential medium, 2 mM L-glutamine, 1.5 g/L sodium bicarbonate, 0.1 mM non-essential amino acids, 1.0 mM sodium pyruvate, 10% fetal bovine serum to 6×10^4 cells/mL. • SKMEL3 (ATCC catalog #HTB-69): resuspend in McCoy's 5A medium, 1.5 mM L-glutamine, 15% fetal bovine serum to 6×10^4 cells/mL. • IPC298 (DSMZ catalog #ACC 251): resuspend in RPMI 1640, 2 mM L-glutamine, 10% fetal bovine serum to 6×10^4 cells/mL.
The cells are plated, 50 μL in each well of a 96-well dish (Corning 3610) and incubated at 37° C. in 5% CO2 overnight, cells plated to a final concentration of cells as follows:
On day 2, compound at a maximum concentration of 5 mM is serially diluted 1:3 (e.g. 10 μL with 30 μL dimethyl sulfoxide) for a total of 8 point titration with DMSO as a control. A 1 μL aliquot of each dilution point and control is added to 249 μL growth media and 50 μL is added to a well containing cells, providing 10 μM compound at the maximum concentration point. The cells are incubated for 3 days at 37° C. in 5% CO2.
On day 5, ATPlite 1 step Luminescence Assay System (Perkin Elmer #6016739) is brought to room temperature along with the cell cultures. ATPlite is added 25 μL to each well, shake for 2 minutes, and the cells are incubated at room temperature for 10 minutes, then luminescence is read on Safire reader. The measured luminescence correlates directly with cell number, such that the reading as a function of compound concentration is used to determine the IC50 value.
It is understood that the results of these assays may vary as assay conditions are varied. Inhibition levels determined under the conditions described herein represent a relative activity for the compounds tested under the specific conditions employed. The cell based assays are likely to show variability due to the complexity of the system and the sensitivity thereof to any changes in the assay conditions. […] Results for compounds that are tested and show substantially no inhibition below the highest tested concentration are represented as “-” in the tables below. In some instances, the compounds were not tested in all of the assays, or assay results were not valid, as indicated by NA in the tables below.
In general terms: Cellular ATP, detected with luciferase, serves as a proxy for viable cell number.

This note sets out measurements from patent US9440969B2, “Compounds and methods for kinase modulation, and indications therefor” (PLEXXIKON INC., priority 2009, dated 2016).

For orientation: IC50 means the point on the concentration scale where inhibition reaches its midpoint.

Molecules are shown by their SMILES.

Sequence of c-Raf-1 (P04049 whole entry Y340D/Y341D, form open): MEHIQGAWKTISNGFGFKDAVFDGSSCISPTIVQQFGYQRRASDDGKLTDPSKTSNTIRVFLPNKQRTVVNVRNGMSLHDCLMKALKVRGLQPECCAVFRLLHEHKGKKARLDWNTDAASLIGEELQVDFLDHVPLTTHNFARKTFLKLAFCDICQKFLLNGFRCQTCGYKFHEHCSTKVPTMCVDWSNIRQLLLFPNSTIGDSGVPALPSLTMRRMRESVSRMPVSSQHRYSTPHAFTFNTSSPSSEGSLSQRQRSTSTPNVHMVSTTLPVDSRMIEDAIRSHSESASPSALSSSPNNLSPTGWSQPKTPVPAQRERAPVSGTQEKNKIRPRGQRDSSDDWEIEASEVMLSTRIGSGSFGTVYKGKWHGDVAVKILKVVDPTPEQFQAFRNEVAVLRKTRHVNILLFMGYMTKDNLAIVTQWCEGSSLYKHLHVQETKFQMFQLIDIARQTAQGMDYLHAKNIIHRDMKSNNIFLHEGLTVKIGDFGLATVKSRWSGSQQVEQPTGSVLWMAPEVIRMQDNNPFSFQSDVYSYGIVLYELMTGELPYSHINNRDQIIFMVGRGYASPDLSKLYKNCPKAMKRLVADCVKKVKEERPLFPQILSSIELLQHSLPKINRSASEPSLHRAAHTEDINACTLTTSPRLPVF
Sequence of B-Raf (P15056 whole entry): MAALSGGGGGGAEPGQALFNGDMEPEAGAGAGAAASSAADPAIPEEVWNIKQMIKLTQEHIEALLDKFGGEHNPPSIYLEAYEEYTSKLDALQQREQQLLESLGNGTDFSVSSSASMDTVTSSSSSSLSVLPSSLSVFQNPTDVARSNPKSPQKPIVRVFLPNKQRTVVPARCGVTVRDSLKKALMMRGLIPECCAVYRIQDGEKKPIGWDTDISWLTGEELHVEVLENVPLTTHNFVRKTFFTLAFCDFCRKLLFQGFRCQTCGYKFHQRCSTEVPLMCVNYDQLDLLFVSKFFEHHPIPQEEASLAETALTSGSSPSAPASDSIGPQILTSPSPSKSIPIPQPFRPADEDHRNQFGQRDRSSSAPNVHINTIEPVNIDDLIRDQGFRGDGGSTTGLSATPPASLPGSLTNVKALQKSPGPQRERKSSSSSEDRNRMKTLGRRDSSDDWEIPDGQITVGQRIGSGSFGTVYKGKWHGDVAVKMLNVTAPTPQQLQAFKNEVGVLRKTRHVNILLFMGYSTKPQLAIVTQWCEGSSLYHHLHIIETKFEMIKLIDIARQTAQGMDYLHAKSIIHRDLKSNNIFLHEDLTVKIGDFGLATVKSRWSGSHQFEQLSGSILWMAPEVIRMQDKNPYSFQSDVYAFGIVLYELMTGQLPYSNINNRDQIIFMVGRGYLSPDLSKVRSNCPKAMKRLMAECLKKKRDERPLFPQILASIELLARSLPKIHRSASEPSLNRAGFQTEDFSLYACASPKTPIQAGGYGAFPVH
Sequence of B-Raf V600E (P15056 whole entry V600E): as the sequence (P15056 whole entry) above, with V600E counted along it

As for `CCCS(=O)(=O)Nc1ccc(F)c(C(=O)c2c[nH]c3ncc(-c4csc(-n5cccn5)n4)cc23)c1F` [P-1103, Propane-1-sulfonic acid {2,4-difluoro-3-[5-(2-pyrazol-1-yl-thiazol-4-yl)-1H-pyrrolo[2,3-b]pyridine-3-carbonyl]-phenyl}-amide], the IC50 is < 0.1 µM in assay [1], < 0.1 µM in assay [2], < 0.1 µM in assay [3] and > 1 µM in assay [4].

Turning to `CCCS(=O)(=O)Nc1ccc(F)c(C(=O)c2c[nH]c3ncc(-c4cnc(-n5ccnc5)s4)cc23)c1F` [P-1104, Propane-1-sulfonic acid {2,4-difluoro-3-[5-(2-imidazol-1-yl-thiazol-5-yl)-1H-pyrrolo[2,3-b]pyridine-3-carbonyl]-phenyl}-amide], the IC50 in assay [1] is < 0.1 µM; in assay [2], < 0.1 µM; in assay [3], < 0.1 µM; in assay [4] it was < 1 µM.

Take `CCCS(=O)(=O)Nc1ccc(F)c(C(=O)c2c[nH]c3ncc(-c4cnc(-n5ccnc5C)s4)cc23)c1F` [P-1105, Propane-1-sulfonic acid (2,4-difluoro-3-{5-[2-(2-methyl-imidazol-1-yl)-thiazol-5-yl]-1H-pyrrolo[2,3-b]pyridine-3-carbonyl}-phenyl)-amide]: the IC50 in assay [1] was < 0.1 µM; in assay [2] it was < 0.1 µM; in assay [3] it was < 0.1 µM; in assay [4], < 1 µM.

For `CCCS(=O)(=O)Nc1ccc(F)c(C(=O)c2c[nH]c3ncc(-c4csc(-n5ccnc5)n4)cc23)c1F` [P-1106, Propane-1-sulfonic acid {2,4-difluoro-3-[5-(2-imidazol-1-yl-thiazol-4-yl)-1H-pyrrolo[2,3-b]pyridine-3-carbonyl]-phenyl}-amide], the half-inhibitory concentration (IC50) in assay [1] was < 0.1 µM; in assay [2], < 0.1 µM; in assay [3], < 0.1 µM; in assay [4], > 1 µM.

On to `CCCS(=O)(=O)Nc1ccc(F)c(C(=O)c2c[nH]c3ncc(-c4ccc(-c5cccnc5)s4)cc23)c1F` [P-1200, Propane-1-sulfonic acid {2,4-difluoro-3-[5-(5-pyridin-3-yl-thiophen-2-yl)-1H-pyrrolo[2,3-b]pyridine-3-carbonyl]-phenyl}-amide], for which the IC50 in assay [1] is < 0.1 µM; in assay [2], < 0.1 µM; in assay [3], < 0.1 µM; in assay [4], > 1 µM.

Turning to `CCCS(=O)(=O)Nc1ccc(F)c(C(=O)c2c[nH]c3ncc(-c4ccc(-c5cc[nH]n5)s4)cc23)c1F` [P-1201, Propane-1-sulfonic acid (2,4-difluoro-3-{5-[5-(1H-pyrazol-3-yl)-thiophen-2-yl]-1H-pyrrolo[2,3-b]pyridine-3-carbonyl}-phenyl)-amide], the IC50 in assay [1] was < 0.1 µM; in assay [2] it was < 0.1 µM; in assay [3], < 0.1 µM; in assay [4], < 1 µM.

Turning to `CCCS(=O)(=O)Nc1ccc(F)c(C(=O)c2c[nH]c3ncc(-c4ccc(S(N)(=O)=O)s4)cc23)c1F` [P-1202, 5-{3-[2,6-Difluoro-3-(propane-1-sulfonylamino)-benzoyl]-1H-pyrrolo[2,3-b]pyridin-5-yl}-thiophene-2-sulfonic acid amide], the IC50 in assay [1] is < 0.1 µM; in assay [2], < 0.1 µM; in assay [3], < 0.1 µM; in assay [4], < 1 µM.

As for `CCCS(=O)(=O)Nc1ccc(F)c(C(=O)c2c[nH]c3ncc(-c4ccc(-c5noc(C)n5)s4)cc23)c1F` [P-1203, Propane-1-sulfonic acid (2,4-difluoro-3-{5-[5-(5-methyl-[1,2,4]oxadiazol-3-yl)-thiophen-2-yl]-1H-pyrrolo[2,3-b]pyridine-3-carbonyl}-phenyl)-amide], the IC50 in assay [1] is < 0.1 µM; in assay [2], < 0.1 µM; in assay [3], < 0.1 µM; in assay [4], > 1 µM.

On to `CCCS(=O)(=O)Nc1ccc(F)c(C(=O)c2c[nH]c3ncc(-c4ccccn4)cc23)c1F` [P-1401, Propane-1-sulfonic acid [2,4-difluoro-3-(5-pyridin-2-yl-1H-pyrrolo[2,3-b]pyridine-3-carbonyl)-phenyl]-amide], for which the half-inhibitory concentration (IC50) is < 0.1 µM in assay [1], < 0.1 µM in assay [2], < 0.1 µM in assay [3] and > 1 µM in assay [4].

`CCCS(=O)(=O)Nc1ccc(F)c(C(=O)c2c[nH]c3ncc(-c4cnc(-n5cccn5)cn4)cc23)c1F` [P-1601, Propane-1-sulfonic acid {2,4-difluoro-3-[5-(5-pyrazol-1-yl-pyrazin-2-yl)-1H-pyrrolo[2,3-b]pyridine-3-carbonyl]-phenyl}-amide]: the concentration for half-maximal inhibition (IC50) was < 0.1 µM in assay [1], < 0.1 µM in assay [2], < 0.1 µM in assay [3] and < 1 µM in assay [4].

For `CCCS(=O)(=O)Nc1ccc(F)c(C(=O)c2c[nH]c3ncc(-c4cnc(-n5ccnc5)cn4)cc23)c1F` [P-1602, Propane-1-sulfonic acid {2,4-difluoro-3-[5-(5-imidazol-1-yl-pyrazin-2-yl)-1H-pyrrolo[2,3-b]pyridine-3-carbonyl]-phenyl}-amide], the IC50 is < 0.1 µM in assay [1], < 0.1 µM in assay [2], < 0.1 µM in assay [3] and < 1 µM in assay [4].

`CCCS(=O)(=O)Nc1ccc(F)c(C(=O)c2c[nH]c3ncc(-c4cnc(N)cn4)cc23)c1F` [P-1603, Propane-1-sulfonic acid {3-[5-(5-amino-pyrazin-2-yl)-1H-pyrrolo[2,3-b]pyridine-3-carbonyl]-2,4-difluoro-phenyl}-amide]: the half-inhibitory concentration (IC50) in assay [1] was < 0.1 µM; in assay [2] it was < 0.1 µM; in assay [3], < 0.1 µM; in assay [4], < 1 µM.

As for `CCCS(=O)(=O)Nc1ccc(F)c(C(=O)c2c[nH]c3ncc(-c4ccc(Cl)c(C(N)=O)c4)cc23)c1F` [P-1700, 2-Chloro-5-{3-[2,6-difluoro-3-(propane-1-sulfonylamino)-benzoyl]-1H-pyrrolo[2,3-b]pyridin-5-yl}-benzamide], the IC50 is < 0.1 µM in assay [1], < 0.1 µM in assay [2], < 0.1 µM in assay [3] and < 1 µM in assay [4].

`CCCS(=O)(=O)Nc1ccc(F)c(C(=O)c2c[nH]c3ncc(-c4ccc5c(c4)CNC5=O)cc23)c1F` [P-1701, Propane-1-sulfonic acid {2,4-difluoro-3-[5-(1-oxo-2,3-dihydro-1H-isoindol-5-yl)-1H-pyrrolo[2,3-b]pyridine-3-carbonyl]-phenyl}-amide]: the IC50 is < 0.1 µM in assay [1], < 0.1 µM in assay [2], < 0.1 µM in assay [3] and < 1 µM in assay [4].
